Columns and labels:
K6 myoblasts = assay: DNA synthesis (BrdU incorporation) in K6 myoblasts; type: cell-based, rat; details: serum-starved K6 myoblasts, 16 h; FCS at 10%
Procedure: Effects of insulin, insulin analogs and IGF-I on the incorporation of 5-bromo-2′-deoxyuridine (BrdU) into DNA in K6 myoblasts. Myoblasts were serum-starved for 30 h in DMEM and subsequently incubated with BrdU in the absence (basal) or presence of the indicated concentrations of peptide hormones or fetal calf serum (FCS) for 16 h. Cells were fixed, denatured and the incorporation of BrdU was determined using an anti-BrdU antiserum and ECL detection. Data are mean values±SEM of four separate experiments.
For monitoring DNA synthesis, K6 myoblasts (1×10^4 cells/well) were seeded in 24-well microtiter tissue culture plates and were cultured for 24 h in DMEM containing 10% FCS, followed by a 30 h culture period under serum-free conditions. Cells were then stimulated with the different peptide hormones or 10% FCS for 16 h with the simultaneous addition of 5-bromo-2′-deoxyundine (BrdU). After removing the labeling mediums the cells were fixed and the DNA was denatured by addition of FixDenat (Boehringer Mannheim, Germany). Cells were then incubated with a peroxidase-conjugated anti-BrdU antiserum, and after addition of substrate the light emission was quantified on a Lumilmager work station.

INS-1 cells = assay: Cytokine-induced apoptosis in pancreatic β-cells (INS-1, nucleosomal release ELISA); type: cell-based, rat; details: IL-1β + IFN-γ, 24 h, IGF-I 10 nM, mean ± SEM of 4-5 experiments
Procedure: The rat insulinoma cell line INS-1 was grown in RPMI 1640 medium supplemented with 10% heat-inactivated fetal calf serum (FCS), 500 U/ml penicillin, 50 μg/ml streptomycin, 2 mmol/l glutamine and 50 μmol/l 2-mercaptoethanol and passaged by trypsinization. Functional integrity of the cells was confirmed by measuring glucose-stimulated insulin secretion. INS-1 cells were routinely seeded at 3.5×10^5 cells/well of a 12-well plate for cell death detection experiments and used on day 4 at 60-70% confluence.
Subconfluent INS-1 cells were incubated for 2 h in RPMI 1640 medium (Eggenstein, Germany) without FCS supplemented with 0.5% BSA. After this serum free period the medium was removed and replaced with fresh RPMI 1640 containing 5% FCS and 0.5% BSA. […] The induced apoptosis was measured by the specific determination of mono- and oligonucleosomes in the cytoplasmatic fraction of cell lysates using a cell death detection ELISA kit (Roche). The assay is based on a quantitative sandwich-enzyme-immunoassay-principle using mouse monoclonal anti-histone and anti-DNA peroxidase antibodies. The relative degree of apoptotic cell death was photometrically determined by measuring the peroxidase activity of the immunocomplexes at 405 nm. […]

## IGF-I: insulin-like growth factor I, peptide hormone used as comparator
K6 myoblasts
  Increase in BrdU-incorporation / DNA synthesis, fold: 4 fold
INS-1 cells
  Inhibition of cytokine-induced apoptosis: 42 ± 2%

— patent US20070099821A1, “METHOD OF ACTIVATING INSULIN RECEPTOR SUBSTRATE-2 TO STIMULATE INSULIN PRODUCTION” (Sanofi-Aventis Deutschland GmbH, priority 2001, published 2007)
